Experimental findings from patent publication US12071488B2, “Method of sensitizing cancer cells to anti-cancer treatment” (TWO TO BIOTECH LTD., priority 2017, dated 2024) are described below.

One assay deals with Notch3 receptor. Kind of assay: Western blot analysis of Notch3 receptor in membrane fraction of MDA-MB-231 cells. The assay is classed as cell-based, human. As for the experimental part: MDA-MB-231 cells (0.8×10^6) were seeded on five 75 cm^2 flasks in 25 ml DMEM (41965039 Gibco) medium comprising 10% fetal bovine serum (FBS), Gentamycin Sulfate (03-035-1C Biological industries) and Amphotericin B (03-029-1C Biological industries). Cells were incubated overnight in an incubator. […]
Media was then removed and the cells were scrapped off the flask by a cell scraper into 1.8 ml fresh DMEM media. Cells were collected into 2 ml Eppendorf tubes in two fractions: cytosolic proteins and membrane proteins that were extracted by Membrane Protein Extraction Kit (Thermo scientific #89842). Protease inhibitors (Sigma p2714) and phosphatase inhibitors (Sigma P5726) were added to the Permeabilization and Solubilization Buffers, as recommended by the manufacturer.
Samples were prepared for western blotting as follows: sample buffer (invitrogen cat #NP0007, 4-fold concentrated) and sample reducing agent (Invitrogen cat #NP0009, 10-fold concentrated) were added to each sample and the samples were boiled for 5 minutes. […]
The membrane was washed 3 times using TBST, and the secondary antibody αRabbit-HRP was then added (dilution 1:5000 in 5% milk in TBST) for an incubation of 1 hour at room temperature, with agitation. […] Notch 3 antibody was applied to the membrane and the quantitation of the protein was preformed and calibrated with beta-actin protein.

Another assay deals with HER2 receptor. The experiment in a line: FACS analysis of HER2 receptor expression on MDA-MB-231 cells. The assay is classed as cell-based, human. As for the experimental part:
Cells (MDA-MB-231, MDA-MB-468 and BTS-149) were grown until 70-80% density was reached. Then the growth medium was discarded and the cells were treated with trypsin and medium as described above. After the cells were detached from the surface, the 20 ml cell suspension (namely cells in medium and Trypsin) were transferred into 50 ml conical tubes and centrifuged at 300 g for 10 min in 4° C. Next, the supernatant was discarded and 2 ml fresh medium were added to the cell pellet. Then the cells were fluidized and 13 ml medium was added to the tubes, thereby suspending the cells in a total of 15 ml medium. The cells were counted and seeded at 10.000-15,000 cells/well on chamber slide in 1 ml growing medium. The chamber slide seeded with cells was placed in the hood for 1 hour and then transferred to the incubator for an overnight incubation under the above conditions. The following day the medium was aspirated from the cell chamber slides and discarded and 1 ml cell treatment medium supplemented with APC1 (at a final concentration of 100 or 250 μg/ml) or control (medium only). Medium was added to each one of the wells (aliquots of APC1 were used in order to avoid repeated freeze-thaw cycle). The cells were then incubated for 24-144 hours. […]

Assay [1] concerns MDA-MB-231 cells. The experiment in a line: Resazurin cell viability assay with APC1 and cisplatin or doxorubicin, MDA-MB-231 cells. The settings on record: MDA-MB-231 pre-incubated with APC1 250 μg/ml; doxorubicin 0.3, 0.5, 1 μM, 48 hours; concentration dependent. The assay is classed as cell-based, human. As for the experimental part: Cells treated with APC1 were seeded with APC1 at 250 μg/ml. The cells were incubated overnight.
Then the media was aspirated from the plates, and 100 μl of the treatment solutions were added to the appropriate wells, each treatment in triplicates. The cells were incubated for 48 hours.

For assay [2], the system named is MDA-MB-231 cells. Kind of assay: FACS analysis of apoptosis (Annexin) in MDA-MB-231 cells. The assay is classed as cell-based, human. An excerpt:
Cells were examined for apoptosis or HER2 expression using FACS analysis. The HER2 antibody used was abcam ab16901. The marker Annexin (Enco) was used for assessment of apoptosis.
For orientation: In flow cytometry, cells or beads pass a laser one at a time.

Assay [3] deals with human ovarian cancer cells (OV90). Kind of assay: Relative tumor volume in nude mice inoculated with human ovarian cancer cells. The assay is classed as in vivo. The settings on record: OV90 tumors.
Protocol: During the treatment period, each mouse was weighted, and the tumor size was measured by Digital caliper.
When the tumors exceeded a volume of 40 mm^3 or 50 mm^3 (for OV90 and Panc1, respectively), the mice were randomly divided into four groups of 8 mice each, as follows. A control group was treated with saline only, the APC1-treated group was treated three times a week with doses of APC1 at 15 mg/kg each, the doxorubicin and APC treated group was treated twice a week with doses of APC1 (at 15 mg/kg each) and once a week with doxorubicin (at 3 mg/kg) and the doxorubicin-treated group was treated with doxorubicin only, once a week at a dose of 3 mg/kg. These dosing protocols were repeated throughout the experiment, namely for 5 weeks.
Assay [4] deals with pancreatic cancer cells BxPC3. Kind of assay: Glutathione level in pancreatic cancer cells treated with APC1. The assay is classed as cell-based, human. The following applies: pancreatic cancer cells (FIG. 18B). Here is the method:
Gluthatione Assay Kit (Sigma CS0260);
Cell lines (MDA-MB-231, MDA-MB-468) were grown in 75 cm^2 cell culture flask, reached 80-90% confluence. The cells were treated with APC1 (250 μg/ml, 2 times per week for 1 week).
Cells were washed twice with 10 ml PBS, PBS (5 ml) was added and the cells were collected by scrapping, centrifuged at 300G, 4° C. for 5 minutes, the supernatant was then discarded and the cells were treated with APC1 as indicated above. The values of the Glutathione Standard Solutions were used to determine the standard curve and the delta A412/min equivalent to 1 nmole of reduced glutathione per well was calculated according to manufacturer's instructions.
As detailed above, the ovarian cancer cells OV90 and OV3, the pancreatic cancer cells BxPC3 and Panel and the TNBC cancer cells MDA-MB-231 and MDA-MB-468 were treated with APC1 and then the relative glutathione levels in these cells was measured as detailed above.

The test system of assay [5] is human TNBC tumors (MDA-MB-231). The experiment in a line: Relative tumor volume in nude mice inoculated with TNBC cells. The assay is classed as in vivo. The following applies: MDA-MB-231 tumors. The source says: To this end, mice were inoculated with TNBC cells as detailed above, briefly 32 nude mice were inoculated subcutaneously with TNBC cells (MDA-MB-231, 8×10^6 cells per mouse).

[6] abbreviates: APC1 15 mg/kg three times a week.
Where [7] appears, read: APC1 15 mg/kg, doxorubicin 3 mg/kg once a week, 5 weeks, control increased linearly.

In the case of “EKGAAFSPIYPRRK (C terminal peptide of KTPAF50) [APC1, polypeptide consisting of the 14 C-terminal amino acid residues of the peptide KTPAF50]”, the “incubation period with highest Notch3 expression” value with Notch3 receptor (APC1 250 μg/ml, 1, 3, 5 or 24 hours) was “highest for incubations periods of 3 and 5 hours”. In addition, the “expression of active Notch3 receptor on the cell membrane” value in the assay with Notch3 receptor (APC1 250 μg/ml, membrane protein fraction) was “increase”. Besides, the “dependence of HER2 expression on APC1 concentration (FACS)” value with HER2 receptor (100 μg/ml vs 250 μg/ml APC1) is given as “concentration dependent”. In the assay on HER2 receptor (MDA-MB-231 cells, two doses of APC1 at 100 or 250 μg/ml, vs control cells), the “HER2 expression (FACS)” value is “rise in HER2 expression”. In the assay on MDA-MB-231 cells [1], the “sensitivity to doxorubicin (relative cell viability)” value is given as “increased the sensitivity”. For the same sequence, in the assay on MDA-MB-231 cells [2] (APC1 alone (FIG. 5A and FIG. 5B)), the “apoptosis with APC1 per se” value is “insignificant (if any)”. Moreover, the “level of cellular apoptosis” value with MDA-MB-231 cells [2] (MDA-MB-231, prolonged incubation, Kadcyla 96 hours (FIG. 6)) is “low level of apoptosis”. For the same sequence, the “effect on tumor volume compared with doxorubicin-treated group” value in assay [3] (setting [6]) and in assay [5] (setting [6]) was “more pronounced” throughout. In addition, the relative tumor volume entry is on record as “modest increases” in assay [3] (setting [7]) and “moderate increase” in assay [5] (setting [7]). Moreover, the level of glutathione entry in assay [4] is on record as “decreased”.
